Each structure is given as a SMILES string.

The values below come from patent US7935707B2, “Imidazole derivatives” (Hoffman-La Roche Inc., priority 2007, dated 2011).

The target in this assay is T1, human chemokine receptor 2 isoform B (Homo sapiens, UniProt P41597).
T1 construct: host or cells: CHOK1-CCR2B-A5 (CHO-K1)
T1 sequence (P41597 1-360 isoform P41597-2): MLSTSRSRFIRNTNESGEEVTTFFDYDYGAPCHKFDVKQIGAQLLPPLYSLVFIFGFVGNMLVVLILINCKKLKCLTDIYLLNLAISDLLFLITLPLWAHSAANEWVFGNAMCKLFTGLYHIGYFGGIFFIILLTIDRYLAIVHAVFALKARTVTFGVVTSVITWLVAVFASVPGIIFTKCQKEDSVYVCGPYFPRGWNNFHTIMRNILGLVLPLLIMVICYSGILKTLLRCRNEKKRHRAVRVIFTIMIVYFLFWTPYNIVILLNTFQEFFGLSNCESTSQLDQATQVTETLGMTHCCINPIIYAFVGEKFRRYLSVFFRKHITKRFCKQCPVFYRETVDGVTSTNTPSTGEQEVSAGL
Kind of assay: Calcium mobilization assay. The conditions noted are these: CHOK1-CCR2B-A5 cells; antagonist activity against 20 nM MCP-1; FLIPR, Fluo-4. The class given is cell-based. As to the method:
Calcium Mobilization Assay
CHOK1-CCR2B-A5 cells (from Euroscreen) stably overexpressing the human chemokine receptor 2 isoform B were cultured in Nutrient Hams F12 medium supplemented with 5% FBS, 100 U/ml penicillin, 100 μg/ml streptomycin, 400 μg/ml G418 and 5 μg/ml puromycin. For the assay cells were grown overnight in 384-well black clear flat bottom polystyrene plates (Costar) at 37° C. at 5% CO2. After washing with DMEM, 20 mM Hepes, 2.5 mM probenecid, 0.1% BSA (DMEM assay buffer) cells were loaded with 4 μM Fluo-4 in the same DMEM assay buffer for 2 hours at 30° C. Excess dye was removed and cells were washed with DMEM assay buffer. 384-well compound plates were prepared with DMEM assay buffer/0.5% DMSO with or without various concentrations of test compounds. Usually compounds were tested for agonist and antagonist activity.
Test compounds were added to the assay plate and agonist activity was monitored as fluorescence for 80 seconds with a FLIPR (488 nm excitation; 510-570 nm emission; Molecular Devices). After 20-30 min. of incubation at 30° C., 20 nM MCP-1 (R&D; Roche) was added and fluorescence was monitored again for 80 seconds. Increases in intracellular calcium are reported as maximum fluorescence after agonist exposure minus basal fluorescence before exposure. Antagonist activity is indicated as inhibitor concentration required for 50% inhibition of specific calcium increases.
(Calcium assays in cells follow changes in intracellular calcium, usually with a dye or a luminescent sensor.)

Take `CCCCCCc1cccc(-c2nc(I)c(C(=O)N3CCC(N(CC)CC)C3)n2C)c1` (racemic) [Example 1, (rac)-(3-Diethylamino-pyrrolidin-1-yl)-[2-(3-hexyl-phenyl)-5-iodo-3-methyl-3H-imidazol-4-yl]-methanone]: the IC50 came to 120 nM.
Next, `CCCCCCc1cccc(-c2nc(I)c(C(=O)N3CCCN(CCO)CC3)n2C)c1` [Example 3, [2-(3-Hexyl-phenyl)-5-iodo-3-methyl-3H-imidazol-4-yl]-[4-(2-hydroxy-ethyl)-[1,4]diazepan-1-yl]-methanone]: 130 nM; `C#Cc1nc(-c2cccc(CCCCCC)c2)n(C)c1C(=O)N1CCC(N2CCCC2)CC1` [Example 13, [5-Ethynyl-2-(3-hexyl-phenyl)-3-methyl-3H-imidazol-4-yl]-(4-pyrrolidin-1-yl-piperidin-1-yl)-methanone]: 35 nM; `CCCCCCc1cccc(-c2nc(C#N)c(C(=O)N3CCC(N4CCCC4)CC3)n2C)c1` [Example 18, 2-(3-Hexyl-phenyl)-1-methyl-5-(4-pyrrolidin-1-yl-piperidine-1-carbonyl)-1H-imidazole-4-carbonitrile]: 75 nM.
Next, `Cn1c(-c2cccc(OC(F)(F)F)c2)nc(-c2cncnc2)c1C(=O)N1CCC(N2CCCC2)CC1` [Example 22, [3-Methyl-5-pyrimidin-5-yl-2-(3-trifluoromethoxy-phenyl)-3H-imidazol-4-yl]-(4-pyrrolidin-1-yl-piperidin-1-yl)-methanone]: 90 nM.
Next, `CCc1nc(-c2cccc(OC(F)(F)F)c2)n(C)c1C(=O)N1CCC(N2CCCC2)CC1` [Example 25, [5-Ethyl-3-methyl-2-(3-trifluoromethoxy-phenyl)-3H-imidazol-4-yl]-(4-pyrrolidin-1-yl-piperidin-1-yl)-methanone]: 71 nM; `Cn1c(-c2cccc(C(F)(F)F)c2)nc(I)c1C(=O)N1CCC(N2CCCC2)CC1` [Example 36, [5-Iodo-3-methyl-2-(3-trifluoromethyl-phenyl)-3H-imidazol-4-yl]-(4-pyrrolidin-1-yl-piperidin-1-yl)-methanone]: 18 nM; `Cn1c(-c2cccc(OC(F)(F)F)c2)nc(I)c1C(=O)N1CCC(N2CCC[C@@H]2CO)CC1` [Example 46, [4-((R)-2-Hydroxymethyl-pyrrolidin-1-yl)-piperidin-1-yl]-[5-iodo-3-methyl-2-(3-trifluoromethoxy-phenyl)-3H-imidazol-4-yl]-methanone]: 160 nM.

For orientation: IC50 means the concentration needed to halve the response being measured.
